{"source": "patent US20060252026A1", "about": "“Cryopreservation method for bivalve oocytes” (priority 2005, published 2006)", "key": {"[1]": {"system": "Pacific oyster (Crassostrea gigas) oocytes", "conditions": "Example 2.7", "description": "Approximately 2.2 million unfrozen or thawed oocytes from 8 individuals were added to 500 mL of SW and fertilised at a ratio of 100 sperm per oocyte. After a contact time of ˜12 min, the fertilised oocytes were transferred into tanks containing 150 L of SW and 1 mg L^−1 EDTA at 23° C. After 24 h, the tanks were drained through a 45-μm mesh and subsamples taken to determine the percentage of oocytes reaching D-larvae in each treatment.\nThe number of D-larvae was standardized for each female so that the four rearing tanks (2×cryopreserved and 2×unfrozen) all contained the same number of larvae. The larvae were resuspended in 2.5 L tanks in a continuous exchange larval rearing system and fed a mixed diet of Chaetoceros calcitrans and Isochrisis galbana (A Janke, H Kaspar, N King, S Foster, Abstracts of the World Aquaculture Society Conference, 1st-4th Mar. 2004, Hawaii, World Aquaculture Society, Louisiana State University, Baton Rouge, La., (2004), 312). Tanks were cleaned and larvae screened every second day to remove dead, abnormal or slow-growing larvae. Competent larvae were induced to metamorphose by bath application of 10^−4 M epinephrine (S L Coon, D B Bonar, Journal of Experimental Marine Biology and Ecology, (1985), 94, 211) for 3 to 5 h. […] The number of D-larvae in each treatment that developed to eyed larvae stage and spat was determined. […]"}, "[2]": {"system": "Pacific oyster (Crassostrea gigas) oocytes", "assay": "Post-thaw fertilisation assay of cryopreserved oocytes", "assay_type": "cell-based", "conditions": "for post-thaw fertilisation rate: Example 2.9, ten percent EG", "method": "Cryopreservation straws (0.25 cc, IMV, France) were then loaded with the solution containing oocytes and CPA, sealed with PVC powder and laid flat on a rack. The total time at room temperature was 20 min. Loaded straws were placed into Cryogenesis freezers (Cryologic Pty Ltd, Mt Waverly, Australia) and held at 0° C. for 5 min. […] Following the hold period, the freezers were then programmed to cool at various rates (standard: 1° C. min^-1) to -35° C. at which temperature the straws were plunged into liquid nitrogen and stored. After up to 24 h storage, the straws were thawed by placing into a water bath at 28° C. […] After dilution, the thawed oocytes along with unfrozen oocytes from the same batch (controls) were fertilised using the miniaturised fertilisation assay described previously ([…] Smith, R D Roberts, A R Janke, […] Pugh, S C Webb, N G King, Aquaculture (2004) 242, 271). […] Duplicate assays were conducted on each straw and assays included a negative control where no sperm were added to check for parthenogenetic activation. […] All CPA concentrations are the final post-dilution levels. Fertilisation results from each experiment were used to determine factors to be evaluated in subsequent experiments. […] Each pool comprised oocytes from 4 to 8 oysters. […] Three new pools were selected from 11 available pools for Examples 2.4 to 2.6."}, "Pacific oyster oocytes [3]": {"system": "Pacific oyster oocytes", "conditions": "Me2SO as CPA; cited from earlier work"}, "[4]": {"system": "Eastern Oyster (Crassostrea virginica) oocytes", "conditions": "Me2SO or sucrose as CPA; cited from earlier work"}, "Pacific oyster oocytes [5]": {"system": "Pacific oyster oocytes", "conditions": "Me2SO as CPA in the presence of trehalose; cited from earlier work"}}, "data": [{"smiles": "OCCO", "note": "[EG, ethylene glycol]", "values": [{"measurement": "percentage of fertilised oocytes developing to D-larvae, fresh versus cryopreserved", "setting": "[1]; P=0.126", "result": "no significant difference"}, {"measurement": "proportion of larvae developing to eyed larvae or spat, fresh versus cryopreserved", "setting": "[1]; P=0.516 and 0.418", "result": "no difference"}, {"measurement": "post-thaw fertilisation", "setting": "[2]; Example 2.10, 10% EG in MQ, thawed in water bath at 3° C.", "result": 79, "unit": "%"}, {"measurement": "post-thaw fertilisation", "setting": "[2]; Example 2.10, 10% EG in MQ, thawed in water bath at 28° C.", "result": 71, "unit": "%"}, {"measurement": "post-thaw fertilisation", "setting": "[2]; Example 2.10, 10% EG in MQ, thawed in water bath at 60° C.", "result": 61, "unit": "%"}, {"measurement": "post-thaw fertilisation", "setting": "[2]; Example 2.10, 10% EG in MQ, thawed in water bath at 90° C.", "result": 52, "unit": "%"}, {"measurement": "oocyte fertilisation post-thaw", "setting": "[2]; Example 2.1, 100% EG (so in the source) in MQ with 0.85% w/v PVP, standard freezing/thawing", "result": "Highest fertilisation rates"}, {"measurement": "oocyte fertilisation post-thaw, effect of holding temperature", "setting": "[2]; Example 2.5, 10% EG in MQ, holding for 5 min at either −10 or −12° C.", "result": "best results"}, {"measurement": "oocyte fertilisation post-thaw, effect of freezing rate", "setting": "[2]; Example 2.6, 10% EG in MQ, slowest post-hold cooling rate (0.3° C. min−1)", "result": "best results"}, {"measurement": "oocyte fertilisation post-thaw", "setting": "[2]; Example 2.7, 10% EG in MQ, no PVP, −10° C. hold, 0.3° C. min−1 to −35° C., mean±se", "result": "52.1±1.2", "unit": "%"}, {"measurement": "post-thaw fertilisation", "setting": "[2]; Example 2.8, 10% EG in MQ, plunging at −25° C.", "result": 5, "unit": "%"}, {"measurement": "post-thaw fertilisation", "setting": "[2]; Example 2.8, 10% EG in MQ, plunging at −35° C.", "result": 72, "unit": "%"}, {"measurement": "post-thaw fertilisation", "setting": "[2]; Example 2.8, 10% EG in MQ, plunging at −45° C.", "result": 76, "unit": "%"}, {"measurement": "post-thaw fertilisation rate", "setting": "[2]; held at −16° C. for 5 min", "result": 31, "unit": "%"}, {"measurement": "post-thaw fertilisation rate", "setting": "[2]; held at −20° C. for 5 min", "result": 3, "unit": "%"}]}, {"smiles": "C[S+](C)[O-]", "note": "[Me2SO, dimethyl sulfoxide]", "values": [{"measurement": "oocyte fertilisation post-thaw", "setting": "[2]; Example 2.1, 15% Me2SO in MQ with 0.85% w/v PVP, standard freezing/thawing", "result": "Highest fertilisation rates"}, {"measurement": "outcome of cryopreservation attempt", "setting": "Pacific oyster oocytes [3]", "result": "entirely unsuccessful"}, {"measurement": "fertilisation of oocytes after cryopreservation", "setting": "[4]", "result": "none of the oocytes were able to be fertilised"}, {"measurement": "oocytes staining as live after cryopreservation", "setting": "[4]", "result": 7, "unit": "%"}, {"measurement": "fertilisation achieved with the thawed oocytes", "setting": "Pacific oyster oocytes [5]", "result": "less than 0.5%"}, {"measurement": "thawed oocytes developing to D-larvae", "setting": "Pacific oyster oocytes [5]", "result": "less than 0.005%"}]}, {"smiles": "CO", "note": "[methanol]", "values": [{"measurement": "oocyte fertilisation post-thaw", "setting": "[2]; Example 2.1, methanol 2.5, 5, 10% v/v in MQ with 0.85% w/v PVP, standard freezing/thawing", "result": "No oocytes were fertilised"}]}, {"smiles": "OC[C@H]1O[C@@](CO)(O[C@H]2O[C@H](CO)[C@@H](O)[C@H](O)[C@H]2O)[C@@H](O)[C@@H]1O", "note": "[sucrose]", "values": [{"measurement": "fertilisation of oocytes after cryopreservation", "setting": "[4]", "result": "none of the oocytes were able to be fertilised"}, {"measurement": "oocytes staining as live after cryopreservation", "setting": "[4]", "result": 7, "unit": "%"}]}, {"smiles": "OC[C@H]1O[C@H](O[C@H]2O[C@H](CO)[C@@H](O)[C@H](O)[C@H]2O)[C@H](O)[C@@H](O)[C@@H]1O", "note": "[trehalose]", "values": [{"measurement": "effect on oocyte fertilisation post-thaw", "setting": "[2]; Example 2.2, trehalose above 0.1 M added to 10% EG in MQ", "result": "significant reduction in fertilisation"}]}]}
